Measured values from paper PMC11476419, “Analysis of Punicalin and Punicalagin Interaction with PDIA3 and PDIA1” (International Journal of Molecular Sciences, 2024).
pKd: −log10 of the molar value.

Experiments:
PDIA3 in U87 MG cells = test: Cellular distribution of PDIA3 by immunofluorescence; type: cell-based, human; details: 5 µM for 48 h and 20 µM for 24 h
Experimental: (§1) Possible changes in the cellular distribution of PDIA3 were previously studied by immunofluorescence assay. Recently, Bilches Medinas et al. reported that a PDIA3 mutation with the loss of functions induced protein aggregation. […] T98G and U87 MG cells were treated with 5 µM and 20 µM of punicalin for 48 h and 24 h, respectively (Figure 8).
(§2) T98G and U-87 MG cells were seeded on coverslips into 6-well plates (200,000 cells/well) and incubated for 24 h and 48 h in the presence of 5 µM and 20 µM punicalagin/punicalin. Cells grown on coverslips were washed with PBS, fixed with 3.7% formaldehyde for 20 min, rinsed with PBS, and then permeabilized with cold methanol (−20 °C) for 5 min. Immunofluorescence analysis was performed according to Paglia et al. using a specific primary antibody against PDIA3 (Millipore, Milan, Italy, cat. ABE1032). Coverslips were mounted on glass microscope slides with DuolinkTM mounting medium and examined using a fluorescence microscope (Leica AF6000 Modular System, Leica, Milan, Italy) with a 63× oil immersion objective. Samples were captured under the same acquisition parameters.

PDIA3 in T98G cells = test: as above; type: cell-based, human; details: 5 µM for 48 h and 20 µM for 24 h
Experimental: as §1, §2

T98G cells = test: Cell counting (crystal violet); type: cell-based, human
Experimental: The number of cells was evaluated after 24 h, 48 h, and 72 h of treatment with punicalin at the concentration of 5 µM and 20 µM (Figure 5b). […] However, an increase in the cell number occurred after 72 h of treatment with punicalin at a 5 µM concentration.
T98G and U-87 MG cells were seeded into 12-well plates (70,000 cells/well) and treated with 5 µM and 20 µM concentrations of punicalin for 24 h, 48 h, and 72 h. At the end of incubation, the cells were washed with PBS (Sigma-Aldrich, cat. D8662), fixed with cold methanol for 20 min, stained with 0.1% crystal violet in methanol/PBS (ratio 1:4) at room temperature for 1 h, and washed again in PBS. To estimate the number of cells remaining in each well, the crystal violet was solubilized by adding a methanol/water solution (50% v/v) and the absorbance at 595 nm was measured.

PDIA1 = molecular target: T1, PDIA1 (Homo sapiens, UniProt P07237); test: Intrinsic tryptophan fluorescence quenching; type: binding
T1 construct: The mature human PDIA1 with an N-terminal His6x-tag was expressed and purified; His6 (N); made in house
Experimental: (§3) In a previous article, we evaluated the ability of punicalagin to interact with PDIA1 and PDIA3 [40]. In this study, the results previously obtained were compared with those obtained using punicalin. The protein–ligand interaction was evaluated by intrinsic quenching analysis due to the presence, in both proteins, of aromatic amino acids, among which tryptophan residues represent the main source. Quenching analysis was performed on PDIA1 and PDIA3, in the reduced form, by adding increasing concentrations of punicalin and recording the fluorescence spectra of both proteins. […] Quenching of intrinsic tryptophan fluorescence of both proteins was assessed using the Stern–Volmer equation, as previously reported. To further characterize the binding process, fluorescence data were analyzed using the equation described by Bi et al. and the reiterative calculation process described by Sun et al., providing an estimated value of the dissociation constant (Kd). The values of the Stern–Volmer constant (KSV) and the Kd obtained for punicalin are summarized in Table 1 and compared with those obtained for punicalagin [40]. The comparison of the results confirms that punicalin can bind both PDIs, although showing a slightly lesser affinity with respect to punicalagin.
(§4) The mature recombinant form (devoid of the N-terminal […]) of the human PDIA3 protein was expressed and purified according to the procedure previously described. […] In both cases, protein purification was evaluated by SDS-PAGE and Coomassie Blue staining, while the concentration was spectrophotometrically estimated using the extinction coefficient (PDIA3 in the reduced form, ε280 = 44,810 M^−1cm^−1; PDIA1 in the reduced form, ε280 = 45,567 M^−1cm^−1).
(§5) Protein–ligand interactions were evaluated by titration of intrinsic fluorescence quenching. Protein mission spectra were recorded by a SPEX-FluoroMax spectrofluorometer (Horiba Scientific, Piscataway, NJ, USA) from 300 to 400 nm, with an excitation wavelength set at 290 nm, emission slit set width, a 2 nm bandpass, and a scan speed set at 120 nm min^−1. […] The emission spectrum of the protein was recorded and the fluorescence intensities at 338 nm, obtained in at least three independent titration experiments, were used for quenching analyses, as previously described. Quenching of intrinsic tryptophan fluorescence at 338 nm was analyzed by the Stern–Volmer equation (Fo/F = 1 + KSV[L]), where F and Fo are the fluorescence intensity, respectively with or without ligand (L), and KSV is the Stern–Volmer constant value. Fluorescence data at 338 nm were also analyzed using the equation described by Bi et al. and the reiterative calculation process described by Sun et al., providing an estimated value of Kd.

PDIA3 = molecular target: T2, PDIA3 (Homo sapiens, UniProt P30101); test: Intrinsic tryptophan fluorescence quenching; type: binding
T2 construct: The mature recombinant form (devoid of the N-terminal […]) of the human PDIA3 protein was expressed and purified; made in house
T2 sequence (P30101 25-505): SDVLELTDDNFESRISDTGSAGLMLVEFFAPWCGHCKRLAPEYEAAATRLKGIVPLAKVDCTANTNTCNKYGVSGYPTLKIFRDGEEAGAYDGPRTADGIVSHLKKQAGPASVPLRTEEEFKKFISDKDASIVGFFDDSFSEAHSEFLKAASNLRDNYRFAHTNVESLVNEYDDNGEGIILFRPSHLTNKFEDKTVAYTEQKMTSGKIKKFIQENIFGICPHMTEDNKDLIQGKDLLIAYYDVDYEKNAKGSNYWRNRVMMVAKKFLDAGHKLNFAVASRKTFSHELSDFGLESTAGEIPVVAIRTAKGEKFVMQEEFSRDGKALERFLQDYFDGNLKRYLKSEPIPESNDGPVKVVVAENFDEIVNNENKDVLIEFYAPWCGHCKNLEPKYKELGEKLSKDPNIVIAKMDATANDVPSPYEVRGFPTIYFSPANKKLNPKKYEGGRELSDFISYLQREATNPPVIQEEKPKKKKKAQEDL
Experimental: as §3, §4, §5

T1 sequence (P07237 18-508): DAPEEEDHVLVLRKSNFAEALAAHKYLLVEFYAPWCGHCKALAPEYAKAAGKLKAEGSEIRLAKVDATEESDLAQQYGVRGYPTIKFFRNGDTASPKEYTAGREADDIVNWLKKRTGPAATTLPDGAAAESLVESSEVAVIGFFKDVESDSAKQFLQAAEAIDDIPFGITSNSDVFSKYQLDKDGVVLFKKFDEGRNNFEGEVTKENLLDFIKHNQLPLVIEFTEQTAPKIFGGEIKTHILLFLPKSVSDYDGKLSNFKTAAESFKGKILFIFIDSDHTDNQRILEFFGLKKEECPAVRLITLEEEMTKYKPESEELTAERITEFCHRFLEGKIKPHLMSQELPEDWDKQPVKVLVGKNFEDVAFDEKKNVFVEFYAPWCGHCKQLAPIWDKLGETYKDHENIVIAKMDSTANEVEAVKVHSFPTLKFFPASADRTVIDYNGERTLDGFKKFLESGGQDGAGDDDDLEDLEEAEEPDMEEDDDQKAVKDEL

SMILES: O=C1OC[C@H]2OC(O)[C@H](O)[C@@H](O)[C@@H]2OC(=O)c2cc(O)c(O)c(O)c2-c2c(O)c(O)c3oc(=O)c4c(c(O)c(O)c5oc(=O)c2c3c54)-c2c1cc(O)c(O)c2O (mixture of isomers) [Punicalin, punicalin]
- change in cellular distribution of PDIA3 (PDIA3 in U87 MG cells): marked change in the fluorescence pattern and a cellular redistribution of PDIA3
- change in cellular distribution of PDIA3 (PDIA3 in T98G cells): marked change in the fluorescence pattern and a cellular redistribution of PDIA3
- kind of effect on cells (T98G cells; 5 µM): preferential cytostatic effect
- kind of effect on cells (T98G cells; 20 µM): cytotoxic
- effect on cell number (T98G cells; 48 h, 5 µM and 20 µM): marked reduction in the T98G cell number
- Stern–Volmer constant (KSV) (PDIA1; reduced PDIA1 0.1 × 10^−6 M, pH 7.4, 25 °C, mean and SEM): 64.0 ± 0.4 M^−1 × 10^3
- pKd (PDIA1; reduced PDIA1, pH 7.4, 25 °C, estimated from quenching data, read-out: dissociation constant (Kd)): 4.80
- Stern–Volmer constant (KSV) (PDIA3; reduced PDIA3 0.1 × 10^−6 M, pH 7.4, 25 °C, mean and SEM): 73.7 ± 0.7 M^−1 × 10^3
- pKd (PDIA3; reduced PDIA3, pH 7.4, 25 °C, estimated from quenching data, read-out: dissociation constant (Kd)): 4.85
